From patent US20190142881A1, “BACTERIOPHAGE COMPOSITIONS AND USES THEREOF” (priority 2016, published 2019)
In brackets after ≈: the same amount, converted by molar mass. Like-named read-outs stand apart in the source and are kept apart here.

Experiments:
strain PA01 ΔoprM = test: Minimum inhibitory concentration (eTest strip) on knockout PA01 ΔoprM; type: cell-based; conditions: Pseudomonas aeruginosa
Protocol: (§1) Bacterial strains were grown overnight at 37° C. as described above. A 200 μL sample of the culture was then spread onto an LB agar plate, and allowed to dry for 10 minutes, followed by application of an eTestStrip (BioMerieux) for a test antibiotic. […] Each strain was tested in triplicate for each antibiotic.
(§2) The effects of phage resistance on sensitivity to the four drugs was tested in replicated assays with PA01 and PA14, as well as with three environmental strains (PAN, 1607, 1845) and three clinical isolates (PAPS, PASk, PADFU). In these assays, the phage-OMKO1 resistant strain was either a knockout mutant (ΔoprM derived from PA01), or an independently derived spontaneous mutant of the associated parental strain.

[1] = tested on: strain ΔmexR (derived from PA01); test: Minimum inhibitory concentration (eTest strip) on control knockout ΔmexR; type: cell-based; conditions: Pseudomonas aeruginosa, average ± SD, phage-sensitive, over-expresses Mex systems
Protocol: as §1
As a control for transposon insertion, strain ΔmexR, which was also derived from PA01, was examined. mexR, the repressor of MexAB-OprM and MexXY-OprM operons should not negatively alter phage sensitivity.

[2] = tested on: environmental and clinical P. aeruginosa strains; test: MIC trade-off assay, phage-resistant mutants of environmental and clinical strains; type: cell-based, Pseudomonas aeruginosa; conditions: majority of outcomes showing statistical significance
[3] = tested on: 72-hour-old P. aeruginosa biofilms; test: Biofilm elimination assays on prosthetic materials; conditions: single agent (antibiotics at 2×MIC)
[4] = tested on: P. aeruginosa isolated from the patient, resistant to phage OMKO1; test: MIC by eTest strip, patient isolate after evolved resistance to phage OMKO1; type: cell-based, Pseudomonas aeruginosa
Protocol: (§3) Phage OMKO1 was amplified on P. aeruginosa in liquid culture in conditions identical to the Serial passage assays. Following 12 hours of amplification, 100 μl of culture was plated on LB agar and incubated for 12 hours. Individual colony-forming units (CFUs) were then collected, and verified to be phage resistant by classic ‘spot tests’ (i.e., 10^7 PFU of phage OMKO1 was pipetted onto a lawn of each bacterial isolate to test whether the phage was capable of visibly clearing the lawn [indicating bacterial sensitivity to phage] versus incapable of clearing the lawn [indicating bacterial resistance to phage]).
as §1
(§4) P. aeruginosa isolated from the patient was subjected to Deep Sequencing (Next Generation Sequencing) on the Illumina HiSeq 2000 platform to confirm species identity and presence of genes known to be associated with efflux-pump mechanisms for resistance to antibiotics. Furthermore, a trade-off between phage OMKO1 sensitivity and antibiotic susceptibility was confirmed as per methods disclosed elsewhere herein (FIG. 5). Phage OMKO1 was sequenced also on the HiSeq 2000 platform and found to be in the PhiKZ-like virus genus.

[5] = tested on: P. aeruginosa isolated from the patient, susceptible to phage OMKO1; test: MIC by eTest strip, patient isolate before phage exposure; type: cell-based, Pseudomonas aeruginosa
Protocol: as §1, §4

[6] = tested on: environmental isolates (PAN, 1607, 1845); test: MIC trade-off assay, phage-resistant mutants of environmental isolates; type: cell-based, Pseudomonas aeruginosa; conditions: phage-resistant mutant versus parental strain
Protocol: as §3, §1, §2

[7] = Dacron sections, 24 h treatment, regrowth OD600
[8] = Pseudomonas aeruginosa, read-out: MIC

Molecule | MIC (strain PA01 ΔoprM) | MIC [1] | change in drug sensitivity on phage resistance [2] | elimination of 72-hour biofilms [3, 7] | elimination of 72-hour biofilms ([3]; Gore-Tex sections) | elimination of 72-hour biofilms ([3]; felt pieces) | elimination of 72-hour biofilms ([3]; polypropylene suture) | MIC ([4]; Pseudomonas aeruginosa) | MIC [5, 8] | MIC ([4]; eTest strip, after evolved resistance to phage OMKO1) | MIC [5] | change in antibiotic sensitivity on resistance to phage OMKO1 [6]
CN(C)[C@@H]1C(O)=C(C(N)=O)C(=O)[C@@]2(O)C(O)=C3C(=O)c4c(O)cccc4[C@@](C)(O)[C@H]3C[C@@H]12 [TET, Tetracycline] | 2 µg/mL (≈ 4.5 µM) | 256 µg/mL (≈ 576 µM) | – | – | – | – | – | – | – | – | – | –
CC(C)(O/N=C(\C(=O)N[C@@H]1C(=O)N2C(C(=O)[O-])=C(C[n+]3ccccc3)CS[C@H]12)c1csc(N)n1)C(=O)O [CAZ, Ceftazidime] | 0.21 ± 0.144 µg/mL (≈ 0.384 µM) | 1.33 ± 0.035 µg/mL (≈ 2.44 µM) | greater drug sensitivity | Neither ciprofloxacin nor ceftazidime at 2×MIC was sufficient to eliminate 72 hour biofilms | unable to remove 72-hour biofilms | neither antibiotic alone significantly removed 72-hour biofilms | not by antibiotics at 2×MIC | 0.35 µg/mL (≈ 0.64 µM) | 1.67 µg/mL (≈ 3.05 µM) | – | – | –
NC[C@H]1O[C@H](O[C@H]2[C@H](O)[C@@H](O[C@H]3O[C@H](CO)[C@@H](O)[C@H](N)[C@H]3O)[C@H](N)C[C@@H]2N)[C@H](N)C[C@@H]1O [tobramycin] | – | – | – | – | – | – | – | 3.67 µg/mL (≈ 7.84 µM) | 11.3 µg/mL (≈ 24.2 µM) | – | – | –
gentamicin | – | – | – | – | – | – | – | – | – | 0.833 µg/mL | 3.7 µg/mL | –
CC[C@H]1OC(=O)[C@H](C)[C@@H](O[C@H]2C[C@@](C)(OC)[C@@H](O)[C@H](C)O2)[C@H](C)[C@@H](O[C@@H]2O[C@H](C)C[C@H](N(C)C)[C@H]2O)[C@](C)(O)C[C@@H](C)C(=O)[C@H](C)[C@@H](O)[C@]1(C)O [EM, Erythromycin] | 4.67 µg/mL (≈ 6.36 µM) | 256 ± 0.577 µg/mL (≈ 349 µM) | – | – | – | – | – | – | – | – | – | increased sensitivity
O=C(O)c1cn(C2CC2)c2cc(N3CCNCC3)c(F)cc2c1=O [CIP, Ciprofloxacin] | 0.016 µg/mL (≈ 0.0483 µM) | 32 µg/mL (≈ 96.6 µM) | – | Neither ciprofloxacin nor ceftazidime at 2×MIC was sufficient to eliminate 72 hour biofilms | unable to remove 72-hour biofilms | neither antibiotic alone significantly removed 72-hour biofilms | not by antibiotics at 2×MIC | 0.014 µg/mL (≈ 0.0423 µM) | 1.17 µg/mL (≈ 3.54 µM) | – | – | –
